One test addresses T1, hM4 receptors (Homo sapiens, UniProt P08173).
T1 construct: expressed in transfected cells; host or cells: CHO cells
T1 sequence (P08173 1-479): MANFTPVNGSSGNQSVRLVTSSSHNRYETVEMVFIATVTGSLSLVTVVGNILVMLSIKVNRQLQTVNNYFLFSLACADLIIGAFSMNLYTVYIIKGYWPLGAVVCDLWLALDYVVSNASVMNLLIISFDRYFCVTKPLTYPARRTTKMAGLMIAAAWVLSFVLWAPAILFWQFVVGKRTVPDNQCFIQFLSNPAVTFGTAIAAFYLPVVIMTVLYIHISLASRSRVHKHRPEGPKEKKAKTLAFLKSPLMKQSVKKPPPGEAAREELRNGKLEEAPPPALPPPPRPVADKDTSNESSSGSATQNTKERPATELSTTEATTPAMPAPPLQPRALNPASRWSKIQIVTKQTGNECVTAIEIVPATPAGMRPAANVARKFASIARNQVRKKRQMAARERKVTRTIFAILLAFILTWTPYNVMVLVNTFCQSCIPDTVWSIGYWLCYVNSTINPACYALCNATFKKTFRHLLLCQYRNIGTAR
Nature of the test: Human M4 PAM pERK assay. It is filed as cell-based. The conditions noted are these: PAM mode. As to the method: (§1) Chinese hamster ovary (CHO) cells expressing either hM4 or rM4 receptors were frozen in assay ready vials (5×10^6 cells/vial) after bulking-up in culture. The day before an assay, vial(s) were thawed and cells seeded in 384 well white proxiplates at 1000/well for hM4 cells and at 2000/well for rM4 cells, in 10 μL of growth media (Hams/F12 with glutamax and 10% FCS) and incubated overnight at 37° C./5% CO2.
(§2) On the following morning, the growth media was removed by ‘flicking out’ over a bin, patting the inverted plate onto tissue, and then replacing with 10 μL of wash media (Hams/F12 with glutamax and 8 mM HEPES, NB: serum free). Then, the wash media was removed in the same way and replaced with 8 μL/well of the serum free media. Plates were then re-incubated for a further 4 hours at 37° C./5% CO2.
(§3) Compounds for testing were solubilized to 10 mM in DMSO and compound addition plates, consisting of ten-point concentration response curves (CRC) in duplicate points (10 μM top concentration, […]), were prepared by acoustic dispensing and the compound management group.
(§4) After the 4-hour incubation in serum free media, a 4 μL aliquot of the 3× compound solution containing an EC20 of acetylcholine (10 nM final concentration) was added to the cell plate using a 384 well plate to plate transfer. Then, the plate lid was replaced, and the cells incubated for 5 mins at 37° C./5% CO2. Following this final incubation, all cellular processes were stopped by the addition of 4 μL/well of lysis and blocking buffer and plates were incubated for 30 minutes at RT on an orbital shaker (gentle setting). Then, a final addition of 4 μL/well of antibody detection mix, containing both the Europium-Cryptate (donor) and d2 (acceptor) tagged detection components, was added followed by a further 2-hour incubation at RT, and then the plate was read using a TR-FRET (time resolved fluorescence resonance energy transfer) based protocol.

The target in a further test is T2, rM4 receptors (Rattus norvegicus, UniProt P08485).
T2 construct: expressed in transfected cells; host or cells: CHO cells
T2 sequence (P08485 1-478): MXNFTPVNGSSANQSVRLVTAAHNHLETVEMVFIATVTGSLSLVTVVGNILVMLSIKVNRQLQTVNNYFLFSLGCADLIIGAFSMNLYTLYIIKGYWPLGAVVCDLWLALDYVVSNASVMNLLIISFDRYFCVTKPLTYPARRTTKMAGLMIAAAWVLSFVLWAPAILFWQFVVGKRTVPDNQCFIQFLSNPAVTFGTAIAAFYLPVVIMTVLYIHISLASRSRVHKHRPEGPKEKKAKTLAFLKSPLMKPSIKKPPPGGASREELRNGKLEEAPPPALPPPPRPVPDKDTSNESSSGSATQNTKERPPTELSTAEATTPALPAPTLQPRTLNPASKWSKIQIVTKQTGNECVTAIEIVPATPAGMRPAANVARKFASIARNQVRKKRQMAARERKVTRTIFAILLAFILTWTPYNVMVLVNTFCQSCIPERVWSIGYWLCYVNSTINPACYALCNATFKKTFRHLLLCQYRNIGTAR
Nature of the test: Rat M4 PAM pERK assay. It is filed as cell-based. The conditions noted are these: PAM mode. As to the method:
as §1, §2, §3, §4

From patent US12421242B2, “Substituted tetrahydropyrrolo-pyridinone compounds and their use in treating medical conditions” (Karuna Therapeutics, Inc., priority 2022, dated 2025) come the findings set out here.

On to `Cc1c2c(n(C)c(=O)c1Cl)CN(C(=O)c1cn(C)cn1)C2` [Compound I-4], for which the results for the concentration giving a half-maximal response (EC50) on hM4 receptors and on rM4 receptors were 500 to 2000 nM and over 2000 nM, respectively.
As for `Cc1c2c(n(C)c(=O)c1Cl)CN(C(=O)c1cnn(C(F)F)c1)[C@@H]2C` [Compound I-77], the results for the EC50 on hM4 receptors and on rM4 receptors were under 100 nM and 100 to 500 nM, respectively.
Turning to `Cc1c2c(n(C)c(=O)c1Cl)CN(C(=O)c1cnn(CC(C)C)c1)C2` [Compound I-5], the EC50 at hM4 receptors was 500 to 2000 nM; on rM4 receptors, over 2000 nM.
As to `Cc1c2c(n(C)c(=O)c1Cl)CN(C(=O)c1cnn(CC3COC3)c1)C2` [Compound I-54], the EC50 at hM4 receptors was 100 to 500 nM; on rM4 receptors it was over 2000 nM.
In the same order, the values of `Cc1cc(=O)n(C)c2c1C(C)N(C(=O)c1cnn(C(F)(F)F)c1)C2` (centres unmarked) [Compound I-93] are under 100 nM and over 2000 nM.
In the same order, the values of `Cc1c2c(n(C)c(=O)c1Cl)CN(C(=O)c1cnn(CC3(C)COC3)c1)C2` [Compound I-53, 3-Chloro-1,4-dimethyl-6-(1-((3-methyloxetan-3-yl)methyl)-1H-pyrazole-4-carbonyl)-1,5,6,7-tetrahydro-2H-pyrrolo[3,4-b]pyridin-2-one] are over 2000 nM and over 2000 nM.
For `Cc1cc(=O)n(C)c2c1CN(C(=O)c1cnn(C)c1)C2C` (single isomer, unassigned) [Compound I-107, 1,4,7-Trimethyl-6-(1-methyl-1H-pyrazole-4-carbonyl)-1,5,6,7-tetrahydro-2H-pyrrolo[3,4-b]pyridin-2-one], the EC50 at hM4 receptors and on rM4 receptors was over 2000 nM throughout.
Regarding `Cc1c2c(n(C)c(=O)c1Cl)CN(C(=O)c1cnc(CC(F)(F)F)s1)C2` [Compound I-39], the half-maximal effective concentration (EC50) was 500 to 2000 nM on hM4 receptors and over 2000 nM on rM4 receptors.
In the same order, the values of `Cc1c2c(n(C)c(=O)c1Cl)CN(C(=O)c1ccc3nc(C4CCC4)sc3c1)C2` [Compound I-51, 3-Chloro-6-(2-cyclobutylbenzo[d]thiazole-6-carbonyl)-1,4-dimethyl-1,5,6,7-tetrahydro-2H-pyrrolo[3,4-b]pyridin-2-one] are under 100 nM and 100 to 500 nM.
For `COc1c2c(n(C)c(=O)c1C)CN(C(=O)c1cnn(CC(F)(F)F)c1)C2` [Compound I-85, 4-Methoxy-1,3-dimethyl-6-(1-(2,2,2-trifluoroethyl)-1H-pyrazole-4-carbonyl)-1,5,6,7-tetrahydro-2H-pyrrolo[3,4-b]pyridin-2-one] the same measures were 500 to 2000 nM and over 2000 nM.
In the case of `Cc1c2c(n(C)c(=O)c1Cl)CN(C(=O)c1cnn(CC3CCOC3)c1)C2` (centres unmarked) [Compound I-56], the EC50 on hM4 receptors and at rM4 receptors was over 2000 nM throughout.
In the case of `Cc1c2c(n(C)c(=O)c1Cl)CN(C(=O)c1cnn(C(C)C)c1)C2` [Compound I-10], the EC50 at hM4 receptors is 100 to 500 nM; at rM4 receptors, over 2000 nM.
Regarding `Cc1c2c(n(C)c(=O)c1C)CN(C(=O)c1ccc3nc(C4CC4)sc3c1)C2` [Compound I-111, 6-(2-Cyclopropylbenzo[d]thiazole-6-carbonyl)-1,3,4-trimethyl-1,5,6,7-tetrahydro-2H-pyrrolo[3,4-b]pyridin-2-one], the values for the EC50 on hM4 receptors and at rM4 receptors were over 2000 nM and 100 to 500 nM, respectively.
For `Cc1cc(=O)n(C)c2c1C(C)N(C(=O)c1ccc3nc(C(F)(F)F)sc3c1)C2` (single isomer, unassigned) [Compound I-101], the values for the EC50 on hM4 receptors and on rM4 receptors were 100 to 500 nM and over 2000 nM, respectively.
With `Cc1c2c(n(C)c(=O)c1C)CN(C(=O)c1cnn(C(F)(F)F)c1)[C@@H]2C` [Compound I-78, (R)-1,3,4,5-Tetramethyl-6-(1-(trifluoromethyl)-1H-pyrazole-4-carbonyl)-1,5,6,7-tetrahydro-2H-pyrrolo[3,4-b]pyridin-2-one], the EC50 on hM4 receptors is under 100 nM; at rM4 receptors, 100 to 500 nM.
As to `CCOc1c2c(n(C)c(=O)c1C)CN(C(=O)c1cnn(C(F)(F)F)c1)C2` [Compound I-88, 4-Ethoxy-1,3-dimethyl-6-(1-(trifluoromethyl)-1H-pyrazole-4-carbonyl)-1,5,6,7-tetrahydro-2H-pyrrolo[3,4-b]pyridin-2-one], the EC50 was under 100 nM on hM4 receptors and over 2000 nM on rM4 receptors.
In the same order, the values of `Cc1c2c(n(C)c(=O)c1Cl)CN(C(=O)c1cnc(C3CCC3)s1)C2` [Compound I-35] are 100 to 500 nM and over 2000 nM.
Take `Cc1c2c(n(C)c(=O)c1Cl)CN(C(=O)c1cc(CC(F)(F)F)on1)C2` [Compound I-58, 3-Chloro-1,4-dimethyl-6-(5-(2,2,2-trifluoroethyl)isoxazole-3-carbonyl)-1,5,6,7-tetrahydro-2H-pyrrolo[3,4-b]pyridin-2-one]: the EC50 at hM4 receptors was 500 to 2000 nM; at rM4 receptors, over 2000 nM.
Regarding `Cc1c2c(n(C)c(=O)c1Cl)CN(C(=O)c1ncc3ccccn13)C2` [Compound I-31], the EC50 at hM4 receptors and at rM4 receptors was over 2000 nM each time.
Regarding `Cc1c2c(n(C)c(=O)c1Cl)CN(C(=O)c1cn3c(n1)CCC3)C2` [Compound I-33], the EC50 was 100 to 500 nM at hM4 receptors and over 2000 nM on rM4 receptors.
In the same order, the values of `Cc1c2c(n(C)c(=O)c1Cl)CN(C(=O)c1cnn3c1CCC3)C2` [Compound I-37] are over 2000 nM and over 2000 nM.
`Cc1c2c(n(C)c(=O)c1C(F)(F)F)CN(C(=O)c1cnn(C)c1)C2` [Compound I-110, 1,4-Dimethyl-6-(1-methyl-1H-pyrazole-4-carbonyl)-3-(trifluoromethyl)-1,5,6,7-tetrahydro-2H-pyrrolo[3,4-b]pyridin-2-one]: the 50% effective concentration (EC50) at hM4 receptors is 100 to 500 nM; at rM4 receptors, over 2000 nM.
For `Cc1c2c(n(C)c(=O)c1Cl)CN(C(=O)c1cnn(Cc3ccc(C(F)(F)F)nc3)c1)C2` [Compound I-57] the same measures were over 2000 nM and over 2000 nM.
In the same order, the values of `Cc1c2c(n(C)c(=O)c1Cl)CN(C(=O)c1cnn(Cc3cccnc3)c1)C2` [Compound I-59, 3-Chloro-1,4-dimethyl-6-(1-(pyridin-3-ylmethyl)-1H-pyrazole-4-carbonyl)-1,5,6,7-tetrahydro-2H-pyrrolo[3,4-b]pyridin-2-one] are 500 to 2000 nM and over 2000 nM.
Turning to `Cc1c2c(n(C)c(=O)c1Cl)CN(C(=O)c1cn3c(n1)COCC3)C2` [Compound I-25], the EC50 at hM4 receptors is 500 to 2000 nM; on rM4 receptors, over 2000 nM.
For the compound `Cc1c2c(n(C)c(=O)c1Cl)CN(C(=O)c1cnn(CC3CC3)c1)C2` [Compound I-27], the half-maximal effective concentration (EC50) is 500 to 2000 nM on hM4 receptors and over 2000 nM on rM4 receptors.
`Cc1c2c(n(C)c(=O)c1Cl)CN(C(=O)c1cn(C(F)(F)F)cn1)C2` [Compound I-15]: the EC50 at hM4 receptors was 100 to 500 nM; on rM4 receptors, over 2000 nM.
Take `Cc1c2c(n(C)c(=O)c1F)CN(C(=O)c1cnn(C(F)(F)F)c1)[C@@H]2C` [Compound I-114, (R)-3-Fluoro-1,4,5-trimethyl-6-(1-(trifluoromethyl)-1H-pyrazole-4-carbonyl)-1,5,6,7-tetrahydro-2H-pyrrolo[3,4-b]pyridin-2-one]: the EC50 is under 100 nM on hM4 receptors and 100 to 500 nM at rM4 receptors.
`Cc1c2c(n(C)c(=O)c1Cl)CN(C(=O)c1ccc3nonc3c1)C2` [Compound I-43]: the figures for the 50% effective concentration (EC50) on hM4 receptors and at rM4 receptors were 100 to 500 nM and 500 to 2000 nM, respectively.
With `Cc1c2c(n(C)c(=O)c1Cl)CN(C(=O)c1cnc(CC3CC3(F)F)s1)C2` (centres unmarked) [Compound I-65], the figures for the EC50 at hM4 receptors and at rM4 receptors were under 100 nM and 500 to 2000 nM, respectively.
For `Cc1c2c(n(C)c(=O)c1Cl)CN(C(=O)c1ccc(C(C)(C)C)s1)C2` [Compound I-7] the same measures were 500 to 2000 nM and over 2000 nM.

The term EC50 denotes the concentration that produces a half-maximal response. Low values mean a more potent agent, high ones a less potent agent.
